IC50 data for 46 molecules are collected here from patent US11286268B1, “EIF4E-inhibiting compounds and methods” (EFFECTOR THERAPEUTICS, INC., priority 2019, dated 2022).

Each structure is given as a SMILES string. Like-named read-outs stand apart in the source and are kept apart here. Bounds are passed on as bounds.

In the assay the target is recombinant eIF4E (Homo sapiens (Human), UniProt P06730). Nature of the assay: Fluorescence polarization competition assay for eIF4E binding potency. The method, boiled down: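 Protein and fluorescent cap-analog probe (EDA-m7GDP-ATTO-550) were mixed first for 5 min, after which serially diluted compound was added to final 75 nM eIF4E, 20 nM probe, 1% DMSO. Reactions equilibrated 30 min at room temperature before polarization was measured.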
recombinant eIF4E, sequence (P06730 whole entry): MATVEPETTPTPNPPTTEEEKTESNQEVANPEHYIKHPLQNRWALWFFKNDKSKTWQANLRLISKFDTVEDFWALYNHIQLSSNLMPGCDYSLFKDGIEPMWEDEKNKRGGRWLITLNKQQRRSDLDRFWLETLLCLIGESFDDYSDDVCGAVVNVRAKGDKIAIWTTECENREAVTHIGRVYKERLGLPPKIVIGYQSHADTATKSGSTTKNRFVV

Where [1] appears, read: fluorescence polarization competition, 75 nM recombinant eIF4E, 20 nM EDA-m7GDP-ATTO-550, IC50 class, read-out: elF4E FP.
Setting [2] is: inhibition of eIF4E/EDA-m7GDP-ATTO-550 binding by 50%, Table 4B calculated values, read-out: IC50.
Setting [3] is: inhibition of eIF4E/EDA-m7GDP-ATTO-550 binding, calculated IC50 values, Table 4B, read-out: IC50.

For the molecule `Cc1nc2cnc(N3CCN(CC(C)(F)CF)CC3)c(C#N)c2c(=O)n1CCOc1ccc(Cl)cc1-c1ccnc2c(C(=O)O)csc12` (stereo not shown) [compound 1164], the IC50 was under 50 nM under setting [1] and 26.7 nM under setting [2].
For `Cc1nc2cc(C(F)(F)F)cc(C#N)c2c(=O)n1CCOc1ccc(Cl)cc1-c1cc(Cl)nc2c(C(=O)O)csc12` [compound 444] the same measures were under 50 nM and 30.8 nM.
Turning to `Cc1nc2cnc(N(C)C3CCN(C(C)CF)CC3)c(C#N)c2c(=O)n1CC#Cc1ccc(Cl)cc1-c1ccnc2c(C(=O)O)csc12` (stereo not shown) [compound 1508], the IC50 under setting [3] was 17.4 nM.
On to `Cc1nc2cc(C(F)(F)F)c(N3CCN(C4COC4)CC3)c(C#N)c2c(=O)n1CCOc1ccc(Cl)cc1-c1ccnc2c(C(=O)O)csc12` [compound 1241], for which the IC50 is, setting by setting: under setting [1], under 50 nM; under setting [3], 17.3 nM.
In the case of `Cc1cc(-c2cc(Cl)ccc2OCCn2c(C)nc3cnc(C4(C(F)(F)F)CC4)c(C#N)c3c2=O)c2scc(C(=O)O)c2n1` [compound 839], the IC50 by setting is: under setting [1], under 50 nM; under setting [2], 29.6 nM.
For `Cc1nc2cc(C(F)F)c(OC(F)(F)F)c(C#N)c2c(=O)n1CCOc1ccc(Cl)cc1-c1ccnc2c(C(=O)O)csc12` [compound 551] the same measures were under 50 nM and 29.2 nM.
For `CCc1cc(-c2cc(Cl)ccc2OCCn2c(C)nc3cnc([C@@H]4[C@@H]5CN(C)C[C@@H]54)c(C#N)c3c2=O)c2scc(C(=O)O)c2n1` [compound 1216], the IC50 was under 50 nM under setting [1] and 10.3 nM under setting [3].
Regarding `Cc1cc(-c2cc(Cl)ccc2OCCn2c(C)nc3cc4c(c(C#N)c3c2=O)CN(C)C4)c2scc(C(=O)O)c2n1` [compound 712], the IC50 is under 50 nM under setting [1] and 19.6 nM under setting [2].
For the molecule `CCN(c1ncc2nc(C)n(CC#Cc3ccc(Cl)cc3-c3ccnc4c(C(=O)NS(=O)(=O)CC(F)F)csc34)c(=O)c2c1C#N)C1CCN(C2COC2)CC1` [compound 1745], under setting [3], the IC50 was 11 nM.
`Cc1sc2c(-c3cc(Cl)ccc3OCCn3c(C)nc4cc(C(F)(F)F)c(N5CCN(C)CC5)c(C#N)c4c3=O)cc(CF)nc2c1C(=O)O` [compound 1237]: the IC50 was under 50 nM under setting [1] and 6.68 nM under setting [3].
As to `CCN(c1ncc2nc(C)n(CC#Cc3ccc(Cl)cc3-c3ccnc4c(C(=O)NS(=O)(=O)CC#N)csc34)c(=O)c2c1C#N)C1CCN(C2COC2)CC1` [compound 1735], the IC50 under setting [3] was 33.6 nM.
Regarding `Cc1cc(-c2c(C(F)(F)F)cc3nc(C)n(CCOc4ccc(Cl)cc4-c4cc(C)nc5c(C(=O)O)csc45)c(=O)c3c2C#N)nc(C)n1` [compound 963], the IC50 by setting is: under setting [1], under 50 nM; under setting [2], 7.84 nM.
As for `Cc1nc2cnc(N3C[C@H]4CN(CC(F)F)C[C@H]4C3)c(C#N)c2c(=O)n1CCOc1ccc(Cl)cc1-c1ccnc2c(C(=O)O)csc12` [compound 1478], under setting [3], the IC50 was 13 nM.
As to `N#Cc1cc(C(=O)O)cc(-c2cc(Cl)ccc2OCCn2cnc3cnc(C#N)cc3c2=O)c1` [compound 93], the IC50 is over 1000 nM under setting [1] and 1400 nM under setting [2].
Regarding `COc1c(N)cc(-c2cc(Cl)ccc2OCCn2cnc3cnc(C#N)cc3c2=O)cc1C(=O)O` [compound 114], the IC50 is 50 to 1000 nM under setting [1] and 333 nM under setting [2].
`Cc1cc(-c2cc(Cl)ccc2OCCn2c(C)nc3cc4c(c(C#N)c3c2=O)CCC4)c2scc(C(=O)O)c2n1` [compound 748]: the IC50 under setting [1] was under 50 nM and the IC50 under setting [2] was 16.3 nM.
On the same counts, the results for `Cc1nc2cc(C(F)(F)F)cc(C#N)c2c(=O)n1CCOc1ccc(Cl)cc1-c1ccnc2c(C(=O)O)c(C(F)(F)F)sc12` [compound 666] are 50 to 1000 nM and 268 nM.
Turning to `Cc1cc(-c2nc3c(=O)n(CCOc4ccc(Cl)cc4-c4ccc(C(N)=O)c5c(C(=O)O)csc45)c(C)nc3cc2C(F)(F)F)ccn1` [788Fb], the IC50 under setting [1] was under 50 nM and the IC50 under setting [2] is 4.35 nM.
For `Cc1nc2cnc(N(C)C3CCCCC3)c(C#N)c2c(=O)n1CC#Cc1ccc(Cl)cc1-c1ccnc2c(C(=O)O)csc12` [compound 1120] the same measures were under 50 nM and 9.51 nM.
For the molecule `Cc1cc(C)nc(-c2c(C(F)(F)F)cc3nc(C)n(CCOc4ccc(Cl)cc4-c4cc(C)nc5c(C(=O)O)csc45)c(=O)c3c2C#N)c1` [compound 905], the IC50 reads like this: under setting [1], under 50 nM; under setting [2], 9.38 nM.
As to `Cc1nc2cc(C(F)(F)F)cc(C#N)c2c(=O)n1CCOc1cc(F)c(Cl)cc1-c1ccnc2c(C(=O)O)csc12` [compound 1903], the IC50 under setting [3] was 29.8 nM.
For `Cc1nc2cc(OC(F)(F)F)c(C#N)c(C#N)c2c(=O)n1CCOc1ccc(Cl)cc1-c1ccnc2c(C(=O)O)csc12` [compound 543], the IC50 is under 50 nM under setting [1] and 38.2 nM under setting [2].
For `Cc1nc2cnc(-c3ccncc3)c(C#N)c2c(=O)n1CC#Cc1ccc(Cl)cc1-c1ccnc2c(C(=O)O)csc12` [compound 770], the IC50 is, setting by setting: under setting [1], under 50 nM; under setting [2], 14 nM.
For `Cc1cc(-c2cc(Cl)ccc2OCCn2c(C)nc3ccc(CCN(C)C)c(C#N)c3c2=O)c2scc(C(=O)O)c2n1` [compound 584] the same measures were under 50 nM and 23.5 nM.
On the same counts, the results for `Cc1cc(-c2nc(C)c3nc(C)n(CCOc4ccc(Cl)cc4-c4cc(C)nc5c(C(=O)O)csc45)c(=O)c3c2C#N)ccn1` [compound 911] are under 50 nM and 17.1 nM.
Take `Cc1cc(-c2cc(Cl)ccc2OCCn2c(C)nc3ccc(N4CCN(C)CC4)c(C#N)c3c2=O)c2sc(C)c(C(=O)O)c2n1` [compound 812]: the IC50 is under 50 nM under setting [1] and 30 nM under setting [2].
For the molecule `Cc1nc2cnc(CC3CCN(CC(F)F)CC3)c(C#N)c2c(=O)n1CCOc1ccc(Cl)cc1-c1ccnc2c(C(=O)O)csc12` [compound 1484], the IC50 under setting [3] was 22.9 nM.
Still for that read-out and setting: as for `Cc1nc2cnc(N(C)C3CCN([C@@H]4C[C@H]4C(F)(F)F)CC3)c(C#N)c2c(=O)n1CC#Cc1ccc(Cl)cc1-c1ccnc2c(C(=O)O)csc12` [compound 1727], the figure is 3.84 nM.
`Cc1cc(-c2cc(Cl)ccc2C#CCn2c(C)nc3cnc(C#N)cc3c2=O)c2scc(C(=O)O)c2n1` [compound 599]: the IC50 runs as follows: under setting [1], 50 to 1000 nM; under setting [2], 61.6 nM.
Take `Cc1nc2cnc(N(C)C3CCN([C@H]4C[C@H](F)C4)CC3)c(C#N)c2c(=O)n1CC#Cc1ccc(Cl)cc1-c1ccnc2c(C(=O)NS(C)(=O)=O)csc12` [compound 1602]: the IC50 under setting [3] is 3.88 nM.
Take `Cc1cc(-c2cc(Cl)ccc2OCCn2c(C)nc3cnc(-c4ccccc4)c(C#N)c3c2=O)c2scc(C(=O)O)c2n1` [compound 1382]: the IC50 under setting [3] was 21.6 nM.
With `Cc1sc2c(-c3cc(Cl)ccc3OCCn3c(C)nc4cc(C(F)(F)F)c(C)c(C#N)c4c3=O)cn(C)c(=O)c2c1C(=O)O` [compound 899], the IC50 by setting is: under setting [1], under 50 nM; under setting [2], 7.44 nM.
For `Cc1cc(-c2cc(Cl)ccc2OCCn2c(C)nc3c(C)nc(-c4ccc(Cl)cc4)c(C#N)c3c2=O)c2scc(C(=O)O)c2n1` [compound 480] the same measures were under 50 nM and 7.39 nM.
Regarding `Cc1cc(-c2cc(Cl)ccc2OCCn2c(C)nc3c(C)nc(C(F)F)c(C#N)c3c2=O)c2scc(C(=O)O)c2n1` [compound 728], the IC50 is under 50 nM under setting [1] and 31 nM under setting [2].
With `Cc1nc2cncc(C#N)c2c(=O)n1CCOc1ccc(Cl)cc1-c1cccc(C(=O)O)c1` [compound 1982], the IC50 under setting [3] was 36.4 nM.
On to `CCc1cc(-c2cc(Cl)ccc2OCCn2c(C)nc3cc(C(F)(F)F)c(CN4CCN(C)CC4)c(C#N)c3c2=O)c2scc(C(=O)O)c2n1` [compound 637], for which the IC50 under setting [1] is under 50 nM and the IC50 under setting [2] was 16.6 nM.
On the same counts, the results for `Cc1nc2cc(C(F)(F)F)cc(C#N)c2c(=O)n1CCOc1ccc(Cl)cc1-c1ccc(C(=O)O)c(C(=O)O)c1` [compound 158] are under 50 nM and 48.3 nM.
On to `Cc1cc(-c2nc3c(=O)n(CCOc4ccc(Cl)cc4-c4ccc(C#N)c5c(C(=O)O)csc45)c(C)nc3cc2C(F)(F)F)ccn1` [788Fa], for which the IC50 is, setting by setting: under setting [1], over 1000 nM; under setting [2], 1940 nM.
Take `Cc1nc2cc(C(F)(F)F)c(N3CCN(C)CC3)c(C#N)c2c(=O)n1CCOc1ccc(Cl)cc1` [compound 808]: the IC50 is, setting by setting: under setting [1], 50 to 1000 nM; under setting [2], 52.4 nM.
Regarding `Cc1nc2cnc(N(C)C3[C@@H]4C[C@H]3CN(CC(C)(F)F)C4)c(C#N)c2c(=O)n1CC#Cc1ccc(Cl)cc1-c1ccnc2c(C(=O)O)csc12` (stereo partly shown) [compound 1691], under setting [3], the IC50 is 17.9 nM.
Turning to `Cc1nc2ccc(S(=O)(=O)N(C)Cc3ccccc3)c(C#N)c2c(=O)n1CCOc1ccc(Cl)cc1-c1ccnc2c(C(=O)O)csc12` [compound 283], the IC50 under setting [1] is under 50 nM and the IC50 under setting [2] was 40.6 nM.
As to `Cc1cc(-c2cc(Cl)ccc2OCCn2c(C)nc3c(C)nc(N4CCC(O)C4)c(C#N)c3c2=O)c2scc(C(=O)O)c2n1` (stereo not shown) [compound 1149], the IC50 is, setting by setting: under setting [1], under 50 nM; under setting [2], 4.19 nM.
For `Cc1cc(-c2cc(Cl)ccc2OCCn2c(C)nc3cc(Cl)c(-c4cccnc4)c(C#N)c3c2=O)c2scc(C(=O)O)c2n1` [compound 653] the same measures were under 50 nM and 22.7 nM.
On the same counts, the results for `Cc1nc2cc(Cl)c(Cl)c(Cl)c2c(=O)n1CCOc1ccc(Cl)cc1-c1ccnc2c(C(=O)O)csc12` [compound 208] are 50 to 1000 nM and 103 nM.
Consider `CCN(c1ncc2nc(C)n(CC#Cc3ccc(Cl)cc3-c3ccnc4c(C(=O)O)csc34)c(=O)c2c1C#N)C1CCN([C@H]2C[C@H](F)C2)CC1` [compound 1795], for which, under setting [3], the IC50 was 8.96 nM.
With `Cc1cc(-c2cc(Cl)ccc2OCCn2c(C)nc3cc(C(F)F)c(N(C)C)c(C#N)c3c2=O)c2scc(C(=O)O)c2n1` [439a], the IC50 under setting [2] was 2.87 nM.
